The results in this text go back to US12673926B2, “Tetrazine compounds for in vivo imaging” (KØBENHAVNS UNIVERSITET, priority 2018, dated 2026).

Data set [1] can be described thus: Rate constant measurements (stopped-flow, pseudo-first order). The following applies: at 25° C. As to the method:
Based on these encouraging results, a study was performed to investigate whether the identified labeling conditions could be applied to Tzs that are more reactive. In this respect, Tz's with stepwise increased reactivity have been tested. […] Synthesis of respective reference compounds and precursors was completed in the same manner as discussed before. Respective second-order rate constants were determined via stopped-flow measurements. […] Radiolabeling was studied using the best aliquot conditions identified in our previous experiments. RCC for [^18F]7, [18F]8 and [^18F]9 were 35%, 30%, and 33%, respectively.
[…] Measurements were performed using a SX20 stopped flow photometer (Applied Photophysics, UK) equipped with a 360 nm LED light source and a photomultiplier type R374 in combination with a 400 nm longpass filter as detector.

Data set [2] in a line: TCO click ability. The following applies: TCO-KSMO in PBS, TLC. How it is done:
To a solution of TCO-KSMO (the polymer) 500 μL (1 mg/mL) PBS was added 100 μL of the formulated tetrazine.
In given time intervals, 2 μL of the solution was withdrawn and quenched with 20 μL of a 3 mg/mL bispyridine-tetrazine solution. TLC (EtOAc) determined the fraction of tetrazines reacted to the TCO. (tetrazine; front, 1,4 adduct; baseline)

A short description of data set [3]: Blood stability (TLC data). The data set is classed as in vitro ADME. The following applies: mice whole blood, 37° C. As to the method:
(§1) Blood stability was tested by mixing 250 μL mice whole blood with 250 μL of the formulated Tz, the mixture was heated and shaken at 37° C. At given time points 1, 2, 3, 5, 10, 20, 60 and 180 min, 20 μL were withdrawn and cooled to 0° C. At the same time points, 20 μL were added to a 20 μL of a solution of 1 mg/mL KSMO (TCO-Polymer) in PBS and left at RT for 1 h.
(§2) The mixtures were then centrifuged at 4200 rpm for 3 min, before ACN (40 μL) was added and centrifuged again for 3 min at 4200 rpm. The supernatant was withdrawn and analyzed with TLC and/or HPLC.

Data set [4] is described as follows: TCO click ability after incubation in blood. Also on record: species or system mice. The settings on record: KSMO 1 h RT. As to the method:
as §1, §2

Data set [5] in a line: Blood stability (TLC data). The following applies: mice whole blood, 37° C., 0 min. The data set is classed as in vitro ADME.
Data set [6] is described as follows: Pretargeted PET/CT imaging with TCO-BP pretreatment. The data set is classed as in vivo, Balb/c mice. The settings on record: BP-TCO pretreated mice vs controls; i.v.; 60 min dynamic PET. How it is done:
All animal studied were approved by the Danish Animal Welfare Council, ministry of Justice. Five weeks old female Balb/c mice (Charles River) were acclimatized for one week with access to water and chow ad libitum. Trans-cyclooctene functionalized bisphosphonates (TCO-BP's) (100 μg. 100 μl PBS) were injected i.v. (n=2), and 1 hour later animals were administered i.v. with [^18F]9 (ca 4MBq) via the tail vein.
The animals were scanned on a dedicated small animal PET/CT scanner (Siemens) during which they were kept anesthetized by breathing sevoflurane and their temperature maintained by heating pad. Immediately after injection of [^18F]9, the animals were moved to a small animal PET/CT scanner and a 60 min dynamic PET acquisition (energy window of 350-650 KeV and a time resolution of 6 ns) was performed followed by a CT scan (360 projections, 65 kV, 500 ρA and 400 ms). Sinograms from PET scans were framed and reconstructed using a 3-dimensional maximum a posteriori algorithm with CT-based attenuation correction. PET and CT images were co-registered and analysed using Inveon software (Siemens). The mean percentage of injected dose per grams (% ID/g) in different tissues was extracted by manually creating regions of interest on fused PET/CT images.
The bioorthogonal chemistry employed is illustrated in FIG. 1. […]

Setting [7] is: after 0 min in mice whole blood at 37° C.
[8] abbreviates: after 1 min in mice whole blood at 37° C.
Setting [9] is: after 2 min in mice whole blood at 37° C.
Setting [10] is: after 3 min in mice whole blood at 37° C.
[11] abbreviates: after 5 min in mice whole blood at 37° C.
[12] abbreviates: after 10 min in mice whole blood at 37° C.
[13] abbreviates: after 20 min in mice whole blood at 37° C.
[14] abbreviates: after 60 min in mice whole blood at 37° C.
Where [15] appears, read: after 180 min in mice whole blood at 37° C.

As for `Cc1nnc(-c2ccc([18F])cc2)nn1` [[^18F]6], the “Second-order rate constant k2” value in data set [1] was found to be 2.25 M⁻¹ s⁻¹. Besides, the “fraction of tetrazines reacted to the TCO” value (from here on “fraction”) in data set [2] (30 sec), in data set [2] (1 min), in data set [2] (2 min), in data set [2] (3 min) and in data set [2] (5 min) was 100% in each case.
As for `Cc1nnc(-c2cccc([18F])c2)nn1` [[^18F]7], the “fraction” value in data set [2] (30 sec), in data set [2] (1 min), in data set [2] (2 min), in data set [2] (3 min) and in data set [2] (5 min) was 100% throughout. Further, the Stability turned out to be 95% in data set [3] (1 min); 96% in data set [3] (2 min); 95% in data set [3] (3 min); 95% in data set [3] (5 min); 96% in data set [3] (10 min); 96% in data set [3] (20 min). In addition, the Stability stood at 96% in data set [3] (60 min), 77% in data set [3] (180 min) and 94% in data set [5]. In addition, the TCO click ability in data set [4] (setting [7]), in data set [4] (setting [8]), in data set [4] (setting [9]), in data set [4] (setting [10]), in data set [4] (setting [11]) and in data set [4] (setting [12]) was 100% each time. Also, the TCO click ability in data set [4] (setting [13]), in data set [4] (setting [14]) and in data set [4] (setting [15]) was 100% throughout.
On to `[18F]c1ccc(-c2nncnn2)cc1` [[^18F]8], for which, in data set [1], the “Second-order rate constant k2” value came to 159 M⁻¹ s⁻¹. Also, the “fraction” value in data set [2] (1 min), in data set [2] (2 min), in data set [2] (3 min) and in data set [2] (5 min) was 100% throughout. The Stability in data set [3] (1 min) came to 72%; in data set [3] (2 min), 85%; in data set [3] (3 min), 89%; in data set [3] (5 min) it was 88%; in data set [3] (10 min) it was 90%; in data set [3] (20 min), 89%. In addition, the Stability was 88% in data set [3] (60 min), 82% in data set [3] (180 min) and 90% in data set [5]. Moreover, the TCO click ability in data set [4] (setting [7]), in data set [4] (setting [8]), in data set [4] (setting [9]), in data set [4] (setting [10]), in data set [4] (setting [11]) and in data set [4] (setting [12]) was 100% throughout. Further, the TCO click ability in data set [4] (setting [13]), in data set [4] (setting [14]) and in data set [4] (setting [15]) was 100% in each case.
With `[18F]c1cccc(-c2nncnn2)c1` [[^18F]9], the “Second-order rate constant k2” value in data set [1] stood at 222 M⁻¹ s⁻¹. In addition, the “fraction” value in data set [2] (15 sec), in data set [2] (30 sec), in data set [2] (1 min), in data set [2] (2 min) and in data set [2] (3 min) was 100% each time. The “PET uptake in bones (knee), the target region of BP-TCOs, compared to controls” value in data set [6] is on record as “higher uptake”. The “PET uptake in control region (the heart), treated vs non-treated mice” value in data set [6] is recorded as “no differences could be detected”.
